{
  "source": "patent US12344599B2",
  "about": "“Prodigiosin analogs and methods of use” (Institute For Cancer Research, priority 2016, dated 2025)",
  "key": {"[1]": {"tested_on": "MDA-MB-231", "test": "CellTiterGlo cell viability assay, MDA-MB-231", "assay_type": "cell-based", "settings": "Homo sapiens; MDA-MB-231, breast cancer, p53 R280K, 72 hours", "protocol": "(§1) • 1) Cell lines: HT29, SW480, DLD-1, HCT116, and p53-null HCT116 cells, H1975, MDA-MD-231, U251, FaDu, CAL-27, PANC-1, Aspc-1, and MRC5 were obtained from the ATCC and cultured as recommended. Cells were regularly authenticated by bioluminescence, growth, and morphologic observation. The cells were routinely examined for Mycoplasma and all cell lines underwent STR authentication. • 2) Western blotting: After treatment, protein lysates were collected for Western blot analysis. 15 μg of protein was used for SDS-PAGE. After primary and secondary antibody incubations, the signal was detected by chemiluminescent detection kit, imaged by Syngene (Imgen Technologies). […] The cell viability was assessed by CellTiterGlo bioluminescent cell proliferation assay (Promega), following the manufacturer's protocol. Bioluminescence imaging was measured using the IVIS imager. Percentage of cell viability (mean±SEM) at each dose was calculated against the respective DMSO control. The IC50 values were determined from the sigmoidal dose-response curves using GraphPad Prims4. • 4) Caspase activity assay: Cells were seeded in 96-well plate (1×10^4 cells/well). […] The caspase 3/7 activity was assessed by Caspase-Glo® 3/7 Assay kit (Promega), following the manufacturer's protocol. Bioluminescence imaging was measured using the IVIS imager. […]"}, "[2]": {"tested_on": "HT29", "test": "CellTiterGlo cell viability assay, HT29", "assay_type": "cell-based", "settings": "Homo sapiens, HT-29; HT29, colorectal cancer, p53 R273H, 72 hours", "protocol": "as §1"}, "[3]": {"tested_on": "HCT116 p53−/− cells", "test": "qRT-PCR of p53 target gene mRNA, HCT116 p53−/−", "assay_type": "cell-based, human", "settings": "1 μM", "protocol": "as §1"}, "[4]": {"tested_on": "DLD1", "test": "CellTiterGlo cell viability assay, DLD1", "assay_type": "cell-based", "settings": "Homo sapiens, DLD-1; DLD1, colorectal cancer, p53 S241F, 72 hours", "protocol": "as §1"}},
  "data": [
    {"smiles": "CCCCCCCCOC(=O)CCc1c(C)[nH]c(/C=C2\\N=C(c3ccc[nH]3)C=C2OC)c1C", "note": "[PG3-Oc, Octyl (Z)-3-(5-((4′-methoxy-1H,5′H-[2,2′-bipyrrol]-5′-ylidene)methyl)-2,4-dimethyl-1H-pyrrol-3-yl)propanoate]", "values": [
      {"measurement": "IC50", "setting": "[1]", "result": 242, "unit": "nM"},
      {"measurement": "IC50", "setting": "[2]", "result": 66.3, "unit": "nM"},
      {"measurement": "change of DR5 mRNA", "setting": "[3]", "result": "no significant change"},
      {"measurement": "induction of p21 mRNA", "setting": "[3]; 8 and 19 hours post-treatment", "result": "Over 3 fold"},
      {"measurement": "IC50", "setting": "[4]", "result": 54, "unit": "nM"}
    ]}
  ]
}
